According to US6676957B1 (priority 2000, dated 2004):

Assays:
[1] = tested on: TSST-1 production by Staphylococcus aureus MN8; type: cell-based; conditions: 24 hours at 35° C.
S. aureus MN8 = type: cell-based, Staphylococcus aureus; conditions: 24 hours at 35° C.

Laureth-4
TSST-1 [1]: 531.8 ng/mL
Final [S. aureus] (S. aureus MN8): 4.57 × 10^9 CFU/ml

PPG-5 Laureth-5
TSST-1 [1]: 609.2 ng/mL
Final [S. aureus] (S. aureus MN8): 3.82 × 10^9 CFU/ml

Steareth-2
TSST-1 [1]: 680.7 ng/mL
Final [S. aureus] (S. aureus MN8): 5.76 × 10^9 CFU/ml
